Where two headings read alike, the source gives them in different places.
Tests used:
[1] = Reaction of NBD-Cl with KO2: stopped-flow kinetics, absorbance and fluorescence calibration; format: physicochemical
[2] = biological target: xanthine-xanthine oxidase reaction (Homo sapiens, UniProt P47989); experiment: Superoxide measurement in the xanthine-xanthine oxidase reaction; format: biochemical
[3] = Redox activity by reaction with photo-excited dye under aerobic conditions (probe reduction at 470 nm and dye photo-bleaching); format: physicochemical; conditions: for redox activity (electron donor or electron acceptor): conclusion from the photo-excited dye assay of the respective example
[4] = Redox activity of activators and inhibitors of membrane-bound transport proteins (overview statement); format: physicochemical; conditions: activators and inhibitors of the sarcoplasmic reticulum calcium release channel; no reference given
[5] = modulators of L-type calcium channel, sodium channel, mitochondrial ATP-dependent potassium channel; references 1-3; cited from earlier work
[6] = system: sarcoplasmic reticulum Ca^2+ release channel; conditions: cited from earlier work
[7] = 10 μM erythrosin, 50 μM NBD-Cl, 80% dimethyl sulfoxide / 20% 1 mM Tris-HCl, pH 7.4, compound 200 μM (diethyl benzocaine 2 mM) vs control
[8] = 10 μM methylene blue, 100 μM NADH, 50 μM NBD-Cl, 10 mM Tris-HCl in water, pH 7.4, doxorubicin 25 and 50 μM vs zero

Sequence of xanthine-xanthine oxidase reaction (P47989 whole entry): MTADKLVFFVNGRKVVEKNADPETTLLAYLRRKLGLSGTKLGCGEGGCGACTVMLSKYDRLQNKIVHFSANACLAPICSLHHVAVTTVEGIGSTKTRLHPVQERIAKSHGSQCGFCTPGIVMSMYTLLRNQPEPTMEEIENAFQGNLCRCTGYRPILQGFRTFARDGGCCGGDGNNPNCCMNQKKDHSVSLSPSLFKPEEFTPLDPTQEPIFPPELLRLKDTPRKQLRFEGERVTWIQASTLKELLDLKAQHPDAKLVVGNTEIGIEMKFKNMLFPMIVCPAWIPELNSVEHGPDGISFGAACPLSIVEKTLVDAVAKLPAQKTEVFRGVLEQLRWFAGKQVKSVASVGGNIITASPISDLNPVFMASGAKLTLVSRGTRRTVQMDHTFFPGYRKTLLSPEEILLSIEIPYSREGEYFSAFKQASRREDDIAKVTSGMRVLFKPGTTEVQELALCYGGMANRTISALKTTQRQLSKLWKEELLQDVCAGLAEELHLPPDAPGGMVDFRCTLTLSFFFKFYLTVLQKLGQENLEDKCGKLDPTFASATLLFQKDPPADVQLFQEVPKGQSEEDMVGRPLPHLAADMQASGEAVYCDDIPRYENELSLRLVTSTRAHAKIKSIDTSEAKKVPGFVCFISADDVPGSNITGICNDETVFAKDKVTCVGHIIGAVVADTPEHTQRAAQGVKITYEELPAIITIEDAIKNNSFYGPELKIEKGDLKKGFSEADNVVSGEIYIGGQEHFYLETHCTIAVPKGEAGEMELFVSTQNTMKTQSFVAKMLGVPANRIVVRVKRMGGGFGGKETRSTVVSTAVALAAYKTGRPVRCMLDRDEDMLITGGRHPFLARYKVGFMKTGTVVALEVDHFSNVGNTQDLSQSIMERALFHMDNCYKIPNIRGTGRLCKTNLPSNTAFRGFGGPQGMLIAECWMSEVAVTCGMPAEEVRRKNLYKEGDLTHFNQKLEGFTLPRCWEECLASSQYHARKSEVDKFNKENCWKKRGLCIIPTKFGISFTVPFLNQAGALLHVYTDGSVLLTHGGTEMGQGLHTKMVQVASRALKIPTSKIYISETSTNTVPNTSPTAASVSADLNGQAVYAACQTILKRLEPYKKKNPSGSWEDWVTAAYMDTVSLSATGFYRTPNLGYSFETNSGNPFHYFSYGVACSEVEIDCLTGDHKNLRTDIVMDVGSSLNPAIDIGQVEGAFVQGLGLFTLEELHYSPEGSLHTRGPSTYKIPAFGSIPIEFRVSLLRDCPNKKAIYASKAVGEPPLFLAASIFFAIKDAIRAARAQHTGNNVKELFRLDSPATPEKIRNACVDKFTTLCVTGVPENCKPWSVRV

| Compound | redox activity (electron donor or electron acceptor) [3] | redox activity (electron donor or electron acceptor) [4] | further results |
| --- | --- | --- | --- |
| 2,3-bis(2-methoxy-4-nitro-5-sulphophenyl)-5-[(phenylamino)carbonyl]-2H-tetrazolium hydroxide [XTT] | – | – | second-order rate constants for reduction by superoxide [1]: 8.59±0.81×10^4 M^−1s^−1; effect of the probe on the xanthine-xanthine oxidase reaction rate [2]: about a two-fold increase; Superoxide at 470 nm (initial rate of superoxide formation) ([2]; pH 7.4): 0.225 ± 0.010 |
| COc1cc(-c2ccc(-n3nc(-c4ccccc4)n[n+]3-c3ccc([N+](=O)[O-])cc3)c(OC)c2)ccc1-n1nc(-c2ccccc2)n[n+]1-c1ccc([N+](=O)[O-])cc1 [NBT, nitroblue tetrazolium] | – | – | Superoxide at 550 nm (initial rate of superoxide formation) ([2]; pH 7.4): 0.038 ± 0.002 |
| CC[C@H]1[C@@H]2C[C@H]3[C@@H]4N(C)c5ccccc5[C@]45C[C@@H]([C@@H]2[C@H]5O)N3[C@@H]1O [ajmalin] | electron donors | – | rate of NBD-Cl reduction (increasing absorbance at 470 nm) [3, 7]: increased; relative degree of electron donor activity ([3]; 10 μM erythrosin, 50 μM NBD-Cl, 80% dimethyl sulfoxide, from level of increase of NBD-Cl reduction rate): stronger electron donor than diethyl benzocaine |
| CC(C)COCC(CN(Cc1ccccc1)c1ccccc1)N1CCCC1 (stereo not shown) [bepridil] | electron donor | – | rate of XTT reduction (increasing absorbance at 470 nm) ([3]; 10 μM eosin, 50 μM XTT, 1 mM Tris-HCl in water, pH 7.4, bepridil 20 and 200 μM vs zero): increased |
| Cn1c(=O)c2c(ncn2C)n(C)c1=O [caffeine] | – | electron acceptors | – |
| N[C@@H](CS)C(=O)O [cysteine] | – | electron donors | – |
| N[C@@H](CSSC[C@H](N)C(=O)O)C(=O)O [cystine] | – | electron acceptors | – |
| CN(C)C(=O)/N=N/C(=O)N(C)C [diamide] | – | electron acceptors | – |
| COc1cccc2c1C(=O)c1c(O)c3c(c(O)c1C2=O)C[C@@](O)(C(=O)CO)C[C@@H]3O[C@H]1C[C@H](N)[C@H](O)[C@H](C)O1 [doxorubicin] | electron acceptor | electron acceptors | rate of NBD-Cl reduction (increasing absorbance at 470 nm) [3, 8]: decreased; rate of methylene blue bleaching (decreasing absorbance at 663 nm) [3, 8]: decreased |
| N[C@@H](CCC(=O)N[C@@H](CS)C(=O)NCC(=O)O)C(=O)O [glutathione] | – | electron donors | – |
| O=C1c2c(O)ccc(O)c2C(=O)c2c(NCCNCCO)ccc(NCCNCCO)c21 [mitoxantrone] | – | electron acceptors | – |
| Oc1ccc(-c2[o+]c3cc(O)cc(O)c3cc2O)cc1 [pelargonidine] | – | – | redox activity (electron donor or electron acceptor) [5]: electron acceptor |
| CCN(CC)CCOC(=O)c1ccc(N)cc1 [procaine] | – | electron donors | – |
| CCCCNc1ccc(C(=O)OCCN(C)C)cc1 [tetracaine] | electron donors | electron donors | rate of NBD-Cl reduction (increasing absorbance at 470 nm) [3, 7]: increased |
| diethyl benzocaine | electron donors | – | rate of NBD-Cl reduction (increasing absorbance at 470 nm) [3, 7]: increased; redox activity (electron donor or electron acceptor) [5]: electron donor |
| ryanodine | – | – | concentrations at which it is a specific activator of the calcium release channel [6]: 1 to 2 µM |
